Values joined by “and” are separate entries in the source; they are usually repeats but may differ in a detail not shown here. Identical values can stand only once. Ends that are not written are not given here.
How the values were obtained:
4T1 cells [1] = experiment: Calreticulin exposure in vitro (flow cytometry); type: cell-based, murine
Experimental: (§1) For the investigation of CXCR4 downstream PI3K signals, cells were fixed, permeabilized, and stained with anti-PI 3 kinase p85 alpha recombinant rabbit monoclonal antibody (1:500 dilution, 4 °C, 1 h) and goat anti-rabbit IgG H&L Alexa Fluor® 647 (1:1000 dilution, 4 °C, 30 min), followed by flow cytometry analysis. For the investigation of ICD hallmarks, cells were stained with anti-calreticulin recombinant rabbit monoclonal antibody (1:500 dilution, 4 °C, 1 h) and goat anti-rabbit IgG H&L Alexa Fluor® 647 (1:1000 dilution, 4 °C, 40 min), followed by flow cytometry analysis. ATP levels in the cell culture supernatant were measured following the protocol of luciferase-based ATP assay kit.

ζ-potential (Zetasizer) = type: physicochemical; conditions: Malvern Zetasizer Nano ZS90; mean ± SD
Experimental: (§2) The average molecular weight (Mw) and polydispersity (PDI) of the HPMA copolymer conjugates were determined by gel permeation chromatography (GPC) on an AKTA purifier equipment with a Superose 6 10/300 GL analytical column (GE Healthcare, USA) and a differential refraction detector (KNAUER, 2300, Germany). Hydrodynamic sizes and zeta potentials were determined using a Malvern Zetasizer Nano ZS90 equipment (Malvern Instruments Ltd, Malvern, UK). The contents of BS, CM1, and CM2 were determined using a bicinchoninic acid (BCA) protein assay. The PS concentration was determined by ultraviolet-visible (UV-Vis) spectroscopy at its characteristic absorbance peak (660 nm).

[2] = system: orthotopic 4T1 breast tumors; experiment: IFN-γ+CD8+ T lymphocytes in primary tumors; type: in vivo, female BALB/c mice; conditions: groups marked (+) (laser irradiation); individual mice, n = 5
Experimental: 4T1 cells (1 × 10^6 cells) were injected into the third mammary fat pad of female BALB/c mice (6–8-week). When tumor volumes reached nearly […] on day 7 after tumor inoculation, mice were randomly divided into 8 groups (n = 8 per group). For four groups without laser irradiation (−), mice were intravenously injected with the following samples: (1) saline on day 7, 14, 21, and 28, (2) P-PS on day 7, 14, 21, and 28, (3) P-BS-PS on day 7, 14, 21, and 28, or (4) P-BS-CM1 on day 7, 14, 21, and 28, followed by P-PS-CM2 on day 8, 15, 22, and 29 (5 mg/kg BS equivalence, CM1:CM2 1:1 mol%, 2.5 mg/kg PS equivalence), respectively. For four groups with laser irradiation (+), mice were treated with the same regimens and irradiated at 650 nm laser (580 mW/cm^2, 5 min) on day 9, 16, 23 and 30. Tumor volumes and mice survivals were recorded every other day. For the investigation of immune response and lung metastasis, 4T1 tumor-bearing female BALB/c mice (6–8-week, tumor volume~100 mm^3) were randomly divided into 8 groups (n = 5 per group) and given three rounds of above treatments. […] The pulmonary metastatic nodules were counted and analyzed by hematoxylin-eosin staining. […] ATP and HMGB1 concentrations in the supernatant of cell suspension were measured using a luciferase-based ATP assay kit and a mouse HMGB1 ELISA kit, respectively. […] Tumor volumes and mice survivals were recorded every other day.

[3] = system: orthotopic 4T1 breast tumors; experiment: PDT efficacy in vivo: primary tumor growth, survival, lung metastasis; design: species or system female BALB/c mice
Experimental: (§3) 4T1 cells (1 × 10^6 cells) were injected into the third mammary fat pad of female BALB/c mice (6–8-week). When tumor volumes reached nearly […] on day 7 after tumor inoculation, mice were randomly divided into 8 groups (n = 8 per group). For four groups without laser irradiation (−), mice were intravenously injected with the following samples: (1) saline on day 7, 14, 21, and 28, (2) P-PS on day 7, 14, 21, and 28, (3) P-BS-PS on day 7, 14, 21, and 28, or (4) P-BS-CM1 on day 7, 14, 21, and 28, followed by P-PS-CM2 on day 8, 15, 22, and 29 (5 mg/kg BS equivalence, CM1:CM2 1:1 mol%, 2.5 mg/kg PS equivalence), respectively. For four groups with laser irradiation (+), mice were treated with the same regimens and irradiated at 650 nm laser (580 mW/cm^2, 5 min) on day 9, 16, 23 and 30. Tumor volumes and mice survivals were recorded every other day. For the investigation of immune response and lung metastasis, 4T1 tumor-bearing female BALB/c mice (6–8-week, tumor volume~100 mm^3) were randomly divided into 8 groups (n = 5 per group) and given three rounds of above treatments. On day 28, lungs and tumors were harvested. lungs were fixed with Bouin’s solution. The pulmonary metastatic nodules were counted and analyzed by hematoxylin-eosin staining. Single-cell suspensions of tumor tissues were stained with anti-CD45-PerCP/Cy5.5 (1:300 dilution) and anti-calreticulin recombinant rabbit monoclonal antibody (1:500 dilution) at 4 °C for 1 h, and then stained with goat anti-rabbit IgG H&L Alexa Fluor® 647 (1:1000 dilution, 4 °C, 45 min), followed by flow cytometry analysis. ATP and HMGB1 concentrations in the supernatant of cell suspension were measured using a luciferase-based ATP assay kit and a mouse HMGB1 ELISA kit, respectively. Single-cell suspensions of tumors were stained with FITC anti-mouse CD3 antibody (1:300 dilution), PerCP/Cyanine5.5 anti-mouse CD4 antibody (1:300 dilution), anti-CD8α-APC (1:300 dilution), and anti-Foxp3-PE (1:300 dilution) for flow cytometry analysis of T cell subtypes (CD8^+ T cells, CD4^+ effector T cells, and Foxp3^+ regulatory T cells), and stained with PE anti-mouse/human CD11b antibody (1:300 dilution) and FITC anti-mouse Ly-6G/Ly-6C (Gr-1) antibody (1:300 dilution) for flow cytometry analysis of MDSCs (CD11b^+Gr1^+). Cytotoxic T cells in tumor tissues were investigated with immunofluorescent staining of IFN-γ and flow cytometry analysis using anti-IFN-γ-PE (1:300 dilution). For CD8-depletion assay, 4T1 tumor-bearing female BALB/c mice (6–8-week, tumor volume~100 mm^3) were randomly divided into 3 groups (n = 8 per group). Mice were intravenously given four doses of P-BS-CM1 on day 7, 14, 21 and 28, combined with P-PS-CM2 on day 8, 15, 22 and 29 (5 mg/kg BS equivalence, CM1:CM2 1:1 mol%, 2.5 mg/kg PS equivalence) in the presence or absence of InvivoMab anti-mouse CD8α (100 μg/mice). Mice were irradiated at 650 nm laser (580 mW/cm^2, 5 min) on day 9, 16, 23 and 30. Tumor volumes and mice survivals were recorded every other day.

4T1 cells [4] = experiment: Extracellular ATP release in vitro; type: cell-based, murine
Experimental: as §1

4T1 cells [5] = experiment: Photosensitizer cell binding (flow cytometry, confocal); type: cell-based, murine
Experimental: For cell binding investigation, 4T1 cells (4 × 10^5 cells/well) were seeded onto 12-well plates (NEST Biotechnology), and treated with i) P-PS for 1 h, ii) P-BS-PS for 1 h, or iii) P-BS-CM1 for 1 h followed by P-PS-CM2 for another 1 h (50 μg/mL BS equivalence, CM1:CM2 1:1 mol%, 25 μg/mL PS equivalence), respectively. Subsequently, cells were washed three times with PBS and observed using flow cytometry and confocal microscopy.

[6] = system: orthotopic 4T1 breast tumors; experiment: Intratumoral ICD hallmarks (CRT, ATP, HMGB1); type: in vivo, female BALB/c mice; conditions: individual mice
Experimental: as §3

[7] = Hydrodynamic size / size distribution by dynamic light scattering; type: physicochemical; conditions: Malvern Zetasizer Nano ZS90, mean ± SD
Experimental: as §2
To investigate the coiled-coil assembly, varying CM1-to-CM2 ratios (3:1, 1:1, and 1:3) of P-BS-CM1 and P-CM2 were mixed in 10 mM PBS (pH 7.4) at 25 °C for 10 min. The total polymer concentration was kept constant at 10 mg/mL. Circular dichroism spectra, size distribution, and rheological properties of P-BS-CM1, P-CM2, and their mixture were measured. The surface morphology of P-BS-CM1 and the mixture (P-BS-CM1 + P-CM2) was observed using scanning electron microscopy. Additionally, for the FRET assay, CM1-to-CM2 equimolar of P-BS-CM1-Cy5 and P-CM2-Cy3 were mixed in 10 mM PBS (pH 7.4) at 25 °C for 10 min. Fluorescent spectra of P-BS-CM1-Cy5, P-CM2-Cy3, and the mixture (P-BS-CM1-Cy5+P-CM2-Cy3) were recorded at the Cy3 excitation wavelength of 550 nm.

[8] = groups marked (+) (laser irradiation), n = 5
[9] = groups marked (-) (no laser irradiation), n = 5

## P-BS-PS: BS-multivalently-modified polymer-PS conjugate (LGASWHRPDKCCLGYQKRPLPA; not fully specified (residues 11, 12); cysteine pairing not given here; also: chlorin e6 photosensitizer on polymer)
4T1 cells [1]; replicate 1
  CRT positive cells (%): 20.53%
4T1 cells [1]; replicate 2
  CRT positive cells (%): 18.21%
4T1 cells [1]; replicate 3
  CRT positive cells (%): 17.1%
ζ-potential (Zetasizer)
  ζ-potential: -18.24±2.31 mV
[2]
  IFN-γ+ cells (%) in tumor-infiltrating CD8+ cells: 13.27% and 14.75% and 15.74% and 11.82% and 15.65%
[3]; (+) with laser, mouse 1 of 5
  Number of lung metastatic nodules: 11
[3]; (+) with laser, mouse 2 of 5
  Number of lung metastatic nodules: 13
[3]; (+) with laser, mouse 3 of 5
  Number of lung metastatic nodules: 6
[3]; (+) with laser, mouse 4 of 5
  Number of lung metastatic nodules: 9
[3]; (+) with laser, mouse 5 of 5
  Number of lung metastatic nodules: 7
[3]; (-) no laser, mouse 1 of 5
  Number of lung metastatic nodules: 24
[3]; (-) no laser, mouse 2 of 5
  Number of lung metastatic nodules: 27
[3]; (-) no laser, mouse 3 of 5
  Number of lung metastatic nodules: 22
[3]; (-) no laser, mouse 4 of 5
  Number of lung metastatic nodules: 23
[3]; (-) no laser, mouse 5 of 5
  Number of lung metastatic nodules: 21
4T1 cells [4]; replicate 1
  Extracellular ATP: 52.31 nM
4T1 cells [4]; replicate 2
  Extracellular ATP: 40.65 nM
4T1 cells [4]; replicate 3
  Extracellular ATP: 40.42 nM
4T1 cells [5]; replicate 1
  Photosensitizer cell binding (fluorescence, Fig. 7a): 507603
4T1 cells [5]; replicate 2
  Photosensitizer cell binding (fluorescence, Fig. 7a): 505554
4T1 cells [5]; replicate 3
  Photosensitizer cell binding (fluorescence, Fig. 7a): 480665
[6]; [8]
  ATP per tumor weight: 345.1 µmol/g and 303.2 µmol/g and 231.5 µmol/g and 287.7 µmol/g and 298.1 µmol/g
  CRT expression in tumor (MFI): 34335.1 MFI and 38552.2 MFI and 29253.6 MFI and 35944.5 MFI and 36607.6 MFI
  HMGB1 per tumor weight: 80.13 ng/g and 70.54 ng/g and 88.61 ng/g and 92.56 ng/g and 89.1 ng/g
[6]; [9]
  ATP per tumor weight: 191.5 µmol/g and 151.37 µmol/g and 120.13 µmol/g and 106.4 µmol/g and 205.73 µmol/g
  HMGB1 per tumor weight: 19.76 ng/g and 15.34 ng/g and 14.57 ng/g and 18.95 ng/g and 19.22 ng/g
[6]; groups marked (-) (no laser irradiation), n = 5, one line each
  CRT expression in tumor (MFI): 27343 MFI and 22321 MFI and 19321 MFI and 23431 MFI and 20197 MFI
[7]
  Size: 22.4±1.4 nm
